Laboratory results as given in ChEMBL document CHEMBL5584240, “Evaluation of potency and metabolic stability of diphyllin-derived Vacuolar-ATPase inhibitors” (Eur J Med Chem, 2024).
Activity calls are given as the source filed them. The rule behind the calls is not given here.

What was measured:
Ebolavirus [1] = assay: Antiviral activity against recombinant Ebola virus Mayinga expressing GFP infected in human HeLa cells with ATP6V0a2 KO assessed as reduction in viral entry into cells pretreated for 1 hr followed by viral infection measured after 24 to 48 hrs by imaging analysis; assay type: functional, organism-based; settings: Orthoebolavirus
[2] = Selectivity index, ratio of CC50 for HEK293 cells to EC50 for recombinant Ebola virus Mayinga expressing GFP infected in human HeLa cells with ATP6V0a2 KO; assay type: toxicity, cell-based; settings: read-out: Ratio CC50/EC50
[3] = target: Voltage-gated inwardly rectifying potassium channel KCNH2 (Homo sapiens, UniProt Q12809); assay: Inhibition of hERG at 10 uM relative to control; assay type: toxicity
HEK293 = assay: Cytotoxicity against HEK293 cells incubated for 72 hrs by MTT assay; assay type: toxicity, cell-based; settings: human, hek293, 72 h
[4] = Selectivity index, ratio of CC50 for human primary macrophages to EC50 for recombinant Ebola virus Mayinga expressing GFP infected in human primary macrophages; assay type: toxicity; settings: read-out: Ratio CC50/EC50
Ebolavirus [5] = assay: Antiviral activity against recombinant Ebola virus Mayinga expressing GFP infected in human primary macrophages assessed as reduction in infectivity pretreated for 1 hr followed by viral infection measured after 24 to 48 hrs by imaging analysis; assay type: functional, organism-based; settings: Orthoebolavirus, Primary macrophage
A549 [6] = assay: Induction of phospholipidosis in NBD-PE-treated human A549 cells at 5 to 10 uM incubated for 24 hrs by imaging based analysis; assay type: functional, cell-based; settings: dose 5-10 µM
[7] = AUC (0.25 to 24 hrs) in CD-1 mouse at 50 mg/kg, po by LC-MS/MS analysis; assay type: ADME, organism-based; settings: in vivo
[8] = AUC (infinity) in CD-1 mouse at 50 mg/kg, po by LC-MS/MS analysis; assay type: ADME, organism-based; settings: in vivo
[9] = Tmax in CD-1 mouse at 50 mg/kg, po by LC-MS/MS analysis; assay type: ADME, organism-based; settings: in vivo
[10] = Apparent volume of distribution during terminal phase in CD-1 mouse at 50 mg/kg, po by LC-MS/MS analysis; assay type: ADME, organism-based; settings: in vivo, read-out: Vz/F
[11] = Apparent oral clearance in CD-1 mouse at 50 mg/kg, po by LC-MS/MS analysis; assay type: ADME, organism-based; settings: in vivo
[12] = Cmax in CD-1 mouse at 50 mg/kg, po by LC-MS/MS analysis; assay type: ADME, organism-based; settings: in vivo
[13] = Half life in CD-1 mouse at 50 mg/kg, po by LC-MS/MS analysis; assay type: ADME, organism-based; settings: in vivo
[14] = MRT in CD-1 mouse at 50 mg/kg, po by LC-MS/MS analysis; assay type: ADME, organism-based; settings: in vivo
A549 [15] = assay: Induction of phospholipidosis in NBD-PE-treated human A549 cells at 1 uM incubated for 24 hrs by imaging based analysis; assay type: functional, cell-based

Sequence of Voltage-gated inwardly rectifying potassium channel KCNH2 (Q12809 whole entry): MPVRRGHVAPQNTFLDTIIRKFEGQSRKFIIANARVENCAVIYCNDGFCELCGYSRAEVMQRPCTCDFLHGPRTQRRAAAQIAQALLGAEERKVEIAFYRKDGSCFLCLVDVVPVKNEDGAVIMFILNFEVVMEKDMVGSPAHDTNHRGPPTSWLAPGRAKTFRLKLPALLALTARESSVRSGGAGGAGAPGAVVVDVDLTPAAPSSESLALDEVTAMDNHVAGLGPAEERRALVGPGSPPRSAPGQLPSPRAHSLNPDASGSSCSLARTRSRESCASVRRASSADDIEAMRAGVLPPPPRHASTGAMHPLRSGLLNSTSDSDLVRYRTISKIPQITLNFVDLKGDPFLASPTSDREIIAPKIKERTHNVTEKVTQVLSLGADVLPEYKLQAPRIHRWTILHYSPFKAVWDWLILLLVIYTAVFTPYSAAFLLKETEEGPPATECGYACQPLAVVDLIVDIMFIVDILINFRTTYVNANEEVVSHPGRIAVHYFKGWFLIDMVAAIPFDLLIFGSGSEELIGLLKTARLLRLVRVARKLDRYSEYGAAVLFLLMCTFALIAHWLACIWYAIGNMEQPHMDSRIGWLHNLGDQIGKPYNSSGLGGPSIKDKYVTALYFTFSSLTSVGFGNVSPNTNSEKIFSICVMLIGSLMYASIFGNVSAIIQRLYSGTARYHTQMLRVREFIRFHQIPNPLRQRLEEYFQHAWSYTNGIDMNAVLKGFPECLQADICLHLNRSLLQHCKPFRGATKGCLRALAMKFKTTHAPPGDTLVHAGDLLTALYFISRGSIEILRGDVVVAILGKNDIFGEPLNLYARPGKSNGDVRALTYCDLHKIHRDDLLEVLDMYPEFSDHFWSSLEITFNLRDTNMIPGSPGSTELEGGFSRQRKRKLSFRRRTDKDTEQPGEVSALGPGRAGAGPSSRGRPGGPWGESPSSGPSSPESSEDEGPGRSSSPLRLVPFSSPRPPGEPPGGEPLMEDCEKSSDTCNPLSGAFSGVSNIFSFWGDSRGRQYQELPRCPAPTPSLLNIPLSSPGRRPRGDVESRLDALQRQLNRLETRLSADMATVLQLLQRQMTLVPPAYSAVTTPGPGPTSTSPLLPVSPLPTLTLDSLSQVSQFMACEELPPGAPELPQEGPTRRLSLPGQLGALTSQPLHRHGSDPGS

Row | SMILES | EC50 (Ebolavirus [1]) | selectivity ratio [2] | inhibition (INH) [3] | CC50 (HEK293) | also measured
1 | COc1cc2c(OCCCN3CC4CC3CN4C)c3c(c(-c4ccc5c(c4)OCO5)c2cc1OC)C(=O)OC3 (stereo unspecified) | 116 nM | > 210 | 72% | > 80000 nM | 
2 | COc1cc2c(OCCCN3CCN(S(C)(=O)=O)CC3)c3c(c(-c4ccc5c(c4)OCO5)c2cc1OC)C(=O)OC3 | 35 nM | > 550 | 16% | > 80000 nM | 
3 | COc1cc2c(OCCCN3CC4CCC3CN4C)c3c(c(-c4ccc5c(c4)OCO5)c2cc1OC)C(=O)OC3 (stereo unspecified) | 26 nM | > 1020 | 90% | 54000 nM | selectivity ratio [4]: 3240; EC50 (Ebolavirus [5]): 2 nM
4 | COc1cc2c(OCCN3CCN(C)CC3)c3c(c(-c4ccc5c(c4)OCO5)c2cc1OC)C(=O)OC3 | 36 nM | 300 | 79% | > 80000 nM | selectivity ratio [4]: 170; EC50 (Ebolavirus [5]): 30 nM
5 | COc1cc2c(OCC(O)CN3CC4CCC(C3)N4C)c3c(c(-c4ccc5c(c4)OCO5)c2cc1OC)C(=O)OC3 (stereo unspecified) | 7 nM | 2000 | 99% | > 80000 nM | 
6 | COc1cc2c(OC3CCOCC3)c3c(c(-c4ccc5c(c4)OCO5)c2cc1OC)C(=O)OC3 | 124 nM | 43 | 36% | > 80000 nM | 
7 | CO/C1=C\C(C)=C\[C@@H](C)[C@@H](O)[C@@H](C)C/C(C)=C/C=C/[C@H](OC)[C@@H]([C@@H](C)[C@@H](O)[C@H](C)[C@@]2(O)C[C@@H](O)[C@H](C)[C@@H](C(C)C)O2)OC1=O [BAFILOMYCIN A1] | 3 nM | 470 |  | 37000 nM | 
8 | CCCCc1oc2ccccc2c1C(=O)c1cc(I)c(OCCN(CC)CC)c(I)c1 |  |  |  |  | Activity (A549 [6]): Active
9 | COc1cc2c(OCCCN3CC4CCC(C3)O4)c3c(c(-c4ccc5c(c4)OCO5)c2cc1OC)C(=O)OC3 | 127 nM | > 190 | 22% | > 80000 nM | 
10 | COc1cc2c(OC3CCNCC3)c3c(c(-c4ccc5c(c4)OCO5)c2cc1OC)C(=O)OC3 | 32 nM | 510 | 80% | > 80000 nM | AUC(0-t) [7]: 0.636 µM·h; AUC [8]: 2.532 µM·h; Tmax [9]: 2 h; Vd/F [10]: 105 L; CL/F [11]: 14.1 mL/min; Cmax [12]: 151 nM; t1/2 [13]: 86.2 h; MRT [14]: 113 h
11 | COC(=O)N1CCN(CC(O)COc2c3c(c(-c4ccc5c(c4)OCO5)c4cc(OC)c(OC)cc24)C(=O)OC3)CC1 (stereo unspecified) | 41 nM | > 740 | 23% | > 80000 nM | 
12 | COc1cc2c(OCC(O)CN3CCOCC3)c3c(c(-c4ccc5c(c4)OCO5)c2cc1OC)C(=O)OC3 (stereo unspecified) | 157 nM | > 160 | 16% | > 80000 nM | 
13 | COc1cc2c(OCCCN3CCN(C=O)CC3)c3c(c(-c4ccc5c(c4)OCO5)c2cc1OC)C(=O)OC3 | 31 nM | > 610 | 34% | > 80000 nM | 
14 | COc1cc2c(OCCCN3CC4CCC3CO4)c3c(c(-c4ccc5c(c4)OCO5)c2cc1OC)C(=O)OC3 (stereo unspecified) | 28 nM | > 1200 | 54% | 80000 nM | selectivity ratio [4]: 319; EC50 (Ebolavirus [5]): 19 nM
15 | COc1cc2c(OC3COC3)c3c(c(-c4ccc5c(c4)OCO5)c2cc1OC)C(=O)OC3 | 318 nM | > 79 | 15% | 72000 nM | 
16 | COc1cc2c(OCCCC#N)c3c(c(-c4ccc5c(c4)OCO5)c2cc1OC)C(=O)OC3 | 37 nM | 130 | 24% | > 80000 nM | AUC(0-t) [7]: 6.86 µM·h; AUC [8]: 7.191 µM·h; Tmax [9]: 0.5 h; Vd/F [10]: 2.85 L; CL/F [11]: 5.18 mL/min; Cmax [12]: 3560 nM; t1/2 [13]: 6.4 h; MRT [14]: 5.9 h
17 | COc1cc2c(OCCCN3CCN(C)C(=O)C3)c3c(c(-c4ccc5c(c4)OCO5)c2cc1OC)C(=O)OC3 | 74 nM | > 340 | 9% | > 80000 nM | Activity (A549 [15]): inactive; selectivity ratio [4]: > 150; EC50 (Ebolavirus [5]): 167 nM
18 | COC(=O)N1CCN(CCCOc2c3c(c(-c4ccc5c(c4)OCO5)c4cc(OC)c(OC)cc24)C(=O)OC3)CC1 | 22 nM | > 110 | 30% | > 80000 nM | 

Row | SMILES | EC50 (Ebolavirus [1]) | selectivity ratio [2] | inhibition (INH) [3] | CC50 (HEK293) | also measured
19 | COc1cc2c(OCCCN3CCNC(=O)C3)c3c(c(-c4ccc5c(c4)OCO5)c2cc1OC)C(=O)OC3 | 441 nM |  | 5% | > 80000 nM | 
20 | COCCN1CCN(CC(O)COc2c3c(c(-c4ccc5c(c4)OCO5)c4cc(OC)c(OC)cc24)C(=O)OC3)CC1 (stereo unspecified) | 44 nM | > 580 | 51% |  | 
21 | COc1cc2c(OCCCN3CC4CC3CO4)c3c(c(-c4ccc5c(c4)OCO5)c2cc1OC)C(=O)OC3 (stereo unspecified) | 48 nM | > 660 | 73% | 52000 nM | 
22 | COc1cc2c(O[C@@H]3O[C@H](C)[C@@H](O)[C@H](O)[C@H]3O)c3c(c(-c4ccc5c(c4)OCO5)c2cc1OC)C(=O)OC3 [PATENTIFLORIN A] | 428 nM | > 59 | < 5% | > 80000 nM | Tmax [9]: 0.25 h; Cmax [12]: 101 nM; selectivity ratio [4]: 295; EC50 (Ebolavirus [5]): 85 nM
23 | COc1cc2c(OC3CCNC3)c3c(c(-c4ccc5c(c4)OCO5)c2cc1OC)C(=O)OC3 (stereo unspecified) | 86 nM | 300 | 97% | > 80000 nM | 
24 | COc1cc2c(OC3CCOC3)c3c(c(-c4ccc5c(c4)OCO5)c2cc1OC)C(=O)OC3 (stereo unspecified) | 40 nM | 87 | 30% | > 80000 nM | AUC(0-t) [7]: 12 µM·h; AUC [8]: 16.455 µM·h; Tmax [9]: 0.5 h; Vd/F [10]: 2.63 L; CL/F [11]: 2.25 mL/min; Cmax [12]: 1250 nM; t1/2 [13]: 13.5 h; selectivity ratio [4]: 132; MRT [14]: 18 h; EC50 (Ebolavirus [5]): 107 nM
25 | COc1cc2c(OCCCN3CCS(=O)(=O)CC3)c3c(c(-c4ccc5c(c4)OCO5)c2cc1OC)C(=O)OC3 | 117 nM | > 240 | 21% | > 80000 nM | Activity (A549 [15]): inactive; selectivity ratio [4]: 138; EC50 (Ebolavirus [5]): 180 nM
26 | COc1cc2c(OCCCN3CCOCC3)c3c(c(-c4ccc5c(c4)OCO5)c2cc1OC)C(=O)OC3 | 95 nM | > 230 | 11% | > 80000 nM | 
27 | COc1cc2c(OCCCN3CCN(C(C)=O)CC3)c3c(c(-c4ccc5c(c4)OCO5)c2cc1OC)C(=O)OC3 | 42 nM | > 590 | 11% | > 80000 nM | 
28 | COc1cc2c(OCC(O)CN3CCN(C)CC3)c3c(c(-c4ccc5c(c4)OCO5)c2cc1OC)C(=O)OC3 (stereo unspecified) | 54 nM | > 420 | 36% | > 80000 nM | selectivity ratio [4]: > 753; EC50 (Ebolavirus [5]): 33 nM
29 | COc1cc2c(OCCCN3[C@@H]4CC[C@H]3COC4)c3c(c(-c4ccc5c(c4)OCO5)c2cc1OC)C(=O)OC3 | 143 nM | > 190 | 76% | > 80000 nM | 
30 | COc1cc2c(OC3CNC3)c3c(c(-c4ccc5c(c4)OCO5)c2cc1OC)C(=O)OC3 | 214 nM | > 150 | 89% | > 80000 nM | 
31 | COc1cc2c(OCCN3CCOCC3)c3c(c(-c4ccc5c(c4)OCO5)c2cc1OC)C(=O)OC3 | 651 nM | > 38 |  | > 80000 nM | 
32 | COc1cc2c(OCCCN3CC4CCC(C3)N4C)c3c(c(-c4ccc5c(c4)OCO5)c2cc1OC)C(=O)OC3 | 10 nM | > 3400 | 100% | > 80000 nM | selectivity ratio [4]: 577; EC50 (Ebolavirus [5]): 10 nM
33 | COc1cc2c(OCCCN3[C@@H]4CC[C@H]3CN(C)C4)c3c(c(-c4ccc5c(c4)OCO5)c2cc1OC)C(=O)OC3 | 18 nM | > 940 | 72% | 71000 nM | selectivity ratio [4]: 313; EC50 (Ebolavirus [5]): 25 nM
34 | COc1cc2c(OCC#N)c3c(c(-c4ccc5c(c4)OCO5)c2cc1OC)C(=O)OC3 | 182 nM | > 140 | 6% | > 80000 nM | 
35 | COc1cc2c(OCCCN3CCN(C)CC3)c3c(c(-c4ccc5c(c4)OCO5)c2cc1OC)C(=O)OC3 | 7 nM | > 630 | 75% | 12000 nM | 
